Experiments:
[1] = test system: LTB0016 intracellular amastigotes in J774.1 macrophages; experiment: Macrophage-amastigote model, reference strain; format: cell-based, Leishmania amazonensis
Protocol: (§1) We used a previously described methodology, with some modifications. Macrophage monolayers, grown in RMPIc medium, for 3 days, were detached from the bottom of the culture chamber, by physical treatment (low temperature and light strokes). Obtained macrophages were seeded in flat-bottom 96-well culture plates, at a density of 2 × 10^5 cells mL^−1 (40,000 macrophages/well), in a final volume of 200 µL. Plates were incubated for 2 h, and the supernatant was discarded to remove non-adhered macrophages. Medium was replaced with stationary-phase promastigotes suspended in 200 µL of RPMIc (2 × 10^6 parasites mL^−1, 400,000 parasites/well), at a macrophage: parasite ratio 1:10 [40]. The plates were incubated for 4 h. Afterwards the medium was replaced with fresh RPMIc and increasing concentrations of compounds or drugs tested were applied, in volumes of 2 µL, according to the different treatment groups. Plates were kept for 72 h, at 37 °C and 5% CO2. The medium was discarded and the wells were washed twice with PBS. Next, a Giemsa staining was performed in situ. It consisted of adding 200 µL of methanol/well, incubating for 5 min, discarding the fixative, and letting it dry at room temperature. Later, the Giemsa solution (10% in PBS w/v, 200 µL/well) was added, incubated for 10 min, and washed with PBS, allowing it to dry. Finally, the bottom of the plates was detached by percussion and the circular bottoms (wells) were fixed to slides with Permount synthetic resin, for later evaluation (Alcazar W., manuscript in preparation). Cell counting was performed with a 100× immersion objective. A minimum of 200 random macrophages were examined. The percentage of infected macrophages (% infection) and the average number of amastigotes present in infected macrophages (amastigotes) were determined. […] The infection rate represents the number of intracellular amastigotes per 100 macrophages evaluated. Additionally, the GI50 for the decrease in the infection rate was calculated. At least three independent experiments were performed. The effect of amphotericin-B (AmB) [Sigma-Aldrich, (St. Louis, MO, USA)] was included as positive control of the assay.

[2] = test system: VE98MR intracellular amastigotes in J774.1 macrophages; experiment: Macrophage-amastigote model, patient isolate VE98MR; format: cell-based, Leishmania amazonensis
Protocol: as §1

[3] = test system: VE2000MM intracellular amastigotes in J774.1 macrophages; experiment: Macrophage-amastigote model, patient isolate VE2000MM; format: cell-based, Leishmania amazonensis
Protocol: as §1

[4] = Cytotoxicity (Alamar Blue) in macrophages; format: cell-based, murine; conditions: mouse, J774.1 macrophages
Protocol: In flat-bottom 96-well culture plates, J774.1 macrophages were seeded at a cell density of 5 × 10^4 mL^−1 (10,000 macrophages/well) in 200 µL of RPMIc. After 24 h at 37 °C, 5% CO2, medium was replaced by 180 µL of RPMIc, without phenol red, and increasing concentrations of test compounds in 2-µL volumes. […] At least two independent experiments were performed in duplicate. Based on the inhibition of cell growth caused by the tested compounds, the percentage of growth inhibition compared to untreated cells was calculated. […] Selectivity indices (SI) were calculated, dividing the macrophage CC50 by the parasites GI50 (SI = CC50/GI50).

[5] = test system: L. (L.) amazonensis LTB0016 promastigotes; experiment: Promastigote in vitro susceptibility (Alamar Blue/resazurin), reference strain; format: cell-based, Leishmania amazonensis; conditions: Leishmania amazonensis; LTB0016 promastigotes, 72 h; read-out: Promastigote (GI50) mean
Protocol: The fluorometric method of Alamar Blue® (resazurin) was used. Promastigotes grown in biphasic agar-blood medium, at the exponential phase of growth, were seeded in flat-bottom 96-well culture plates, at a cell density of 1 × 10^6 parasites mL^−1 (200,000 parasites/well), in 180 µL of RPMIc without phenol red. Subsequently, either a sole concentration (50 µM), or increasing concentrations of compounds or drugs were applied, according to each treatment group, in volumes of 2 µL. Plates were kept at 26 °C, in a humid chamber, for 72 h. […] Live parasites are metabolically active and capable of reducing non-fluorescent resazurin (blue) to fluorescent resorufin (red). Fluorescence intensity is directly proportional to the number of viable cells. […] At least two independent experiments were performed in duplicate. The effect of trivalent antimonial [SbIII, potassium antimonyl tartrate trihydrate, Sigma-Aldrich, (St. Louis, MO, USA)] was included as positive control of the assay.

[6] = J774.1 CC50 / intracellular amastigote GI50, Table 2

## C[C@@H]1[C@H](O)[C@@H](C)/C=C/C=C/C=C/C=C/C=C/C=C/C=C/[C@H](O[C@@H]2O[C@H](C)[C@@H](O)[C@H](N)[C@@H]2O)C[C@@H]2O[C@](O)(C[C@@H](O)C[C@@H](O)[C@H](O)CC[C@@H](O)C[C@@H](O)CC(=O)O[C@H]1C)C[C@H](O)[C@H]2C(=O)O [AmB, amphotericin-B, reference compound]
[1]; [6]
  SI (CC50/GI50) LTB0016: >500
[1]; LTB0016, 0.10 µM, 72 h, Exp1, % infected macrophages
  Growth (%) Exp1 Infección: 12.89%
[1]; LTB0016, 0.10 µM, 72 h, Exp1, amastigotes per infected macrophage
  Growth (%) Exp1 A/MØ: 2.10
[1]; LTB0016, 0.10 µM, 72 h, Exp1, infection index
  Growth (%) Exp1 A/100MØ: 27.07
[1]; LTB0016, 0.10 µM, 72 h, Exp1, infection index vs DMSO
  Growth (%) Exp1 %Control: 10.32%
[1]; LTB0016, 0.10 µM, 72 h, Exp2, % infected macrophages
  Growth (%) Exp2 Infección: 13.33%
[1]; LTB0016, 0.10 µM, 72 h, Exp2, amastigotes per infected macrophage
  Growth (%) Exp2 A/MØ: 1.38
[1]; LTB0016, 0.10 µM, 72 h, Exp2, infection index
  Growth (%) Exp2 A/100MØ: 18.40
[1]; LTB0016, 0.10 µM, 72 h, Exp2, infection index vs DMSO
  Growth (%) Exp2 %Control: 8.65%
[1]; LTB0016, 0.10 µM, 72 h, Exp3, % infected macrophages
  Growth (%) Exp3 Infección: 8.08%
[1]; LTB0016, 0.10 µM, 72 h, Exp3, amastigotes per infected macrophage
  Growth (%) Exp3 A/MØ: 1.33
[1]; LTB0016, 0.10 µM, 72 h, Exp3, infection index
  Growth (%) Exp3 A/100MØ: 10.75
[1]; LTB0016, 0.10 µM, 72 h, Exp3, infection index vs DMSO
  Growth (%) Exp3 %Control: 6.05%
[1]; LTB0016, 0.10 µM, 72 h, average of Exp1-3
  Average A/100MØ: 18.74
[1]; Leishmania amazonensis, J774.1, intracellular amastigotes, 72 h, Table 2, read-out: GI50 (µM) LTB0016
  GI50: 0.02 µM
[2]; [6]
  SI (CC50/GI50) VE98MR: >136
[2]; Leishmania amazonensis, J774.1, intracellular amastigotes, 72 h, Table 2, read-out: GI50 (µM) VE98MR
  GI50: 0.073 µM
[2]; VE98MR, dose 0.10 µM, Exp1
  Growth (%) Exp1 %Control: 10.60%
  Growth (%) Exp1 A/100MØ: 17.06
  Growth (%) Exp1 A/MØ: 1.26
  Growth (%) Exp1 Infección: 13.54%
[2]; VE98MR, dose 0.10 µM, Exp2
  Growth (%) Exp2 %Control: 2.71%
  Growth (%) Exp2 A/100MØ: 5.60
  Growth (%) Exp2 A/MØ: 1.16
  Growth (%) Exp2 Infección: 4.83%
[2]; VE98MR, dose 0.10 µM, Exp3
  Growth (%) Exp3 %Control: 6.21%
  Growth (%) Exp3 A/100MØ: 15.40
  Growth (%) Exp3 A/MØ: 2.00
  Growth (%) Exp3 Infección: 7.70%
[2]; VE98MR, dose 0.10 µM, average of Exp1-3
  Average A/100MØ: 12.69
[3]; [6]
  SI (CC50/GI50) VE2000MM: >125
[3]; Leishmania amazonensis, J774.1, intracellular amastigotes, 72 h, Table 2, read-out: GI50 (µM) VE2000MM
  GI50: 0.08 µM
[3]; VE2000MM, dose 0.10 µM, Exp1
  Growth (%) Exp1 %Control: 7.30%
  Growth (%) Exp1 A/100MØ: 18.04
  Growth (%) Exp1 A/MØ: 1.70
  Growth (%) Exp1 Infección: 10.61%
[3]; VE2000MM, dose 0.10 µM, Exp2
  Growth (%) Exp2 %Control: 9.84%
  Growth (%) Exp2 A/100MØ: 23.78
  Growth (%) Exp2 A/MØ: 2.17
  Growth (%) Exp2 Infección: 10.96%
[3]; VE2000MM, dose 0.10 µM, Exp3
  Growth (%) Exp3 %Control: 7.62%
  Growth (%) Exp3 A/100MØ: 17.22
  Growth (%) Exp3 A/MØ: 2.00
  Growth (%) Exp3 Infección: 8.61%
[3]; VE2000MM, dose 0.10 µM, average of Exp1-3
  Average A/100MØ: 19.68
[4]
  CC50 at 72 h: > 10000 nM
[5]
  GI50: 68 nM

Reference: paper PMC7913927, “Leishmanicidal Activity of Betulin Derivatives in Leishmania amazonensis; Effect on Plasma and Mitochondrial Membrane Potential, and Macrophage Nitric Oxide and Superoxide Production” (Microorganisms, 2021)
